Laboratory results from patent US6838481B1, “Skin whitener” (LG Household & Health Care Ltd., priority 1998, dated 2005).

Columns and labels:
[1] = system: B-16 mouse melanoma cells; assay: Melanin formation inhibiting effects of EL-1 at the cellular level; assay type: cell-based; details: for Melanin formation amount: cultured 3 days, repetition number = 3; for Inhibition ratio (%): melanin formation relative to control; for Cell toxicity: final conc. 10 μg/ml
Protocol: The whitening effect was tested at the cellular level by adding EL-1 obtained from the above EXAMPLES 1 to 7 to a cultured solution of B-16 mouse melanoma cells (Lotan R., Lotan D. Cancer Res. 40:3345-3350, 1980) as follows.
The EL-1 obtained in EXAMPLES 1 to 7 was added to a culture solution of B-16 mouse melanoma cells so that the final concentrations become 1 μg/ml, 5 μg/ml and 50 μg/ml respectively, and they were cultured for 3 days. After trypsin was added to the cells and the solution was removed from the culture container and centrifuged, melanin was extracted. 1 ml of sodium hydroxide solution (1 N concentration) was added to the extracted melanin and boiled for about 10 minutes to dissolve the melanin. The test was carried out in a way whereby the formed melanin amount was represented in absorbance per unit cell number, expressed as A400/10^6 cells by measuring the absorbance at 400 nm. After repeating this test 3 times, the melanin formation amount relative to the control was calculated as an inhibition ratio (%) using the average values.

[2] = system: B-16 mouse melanoma cells; assay: as above; assay type: cell-based; details: concentration of 50 μg/ml

SMILES	Melanin formation amount ([1]; final conc. 1 μg/ml) [A400/10^6 cells]	Inhibition ratio (%) ([1]; final conc. 1 μg/ml)	Melanin formation amount ([1]; final conc. 5 μg/ml) [A400/10^6 cells]	Inhibition ratio (%) ([1]; final conc. 5 μg/ml)	Melanin formation amount ([1]; final conc. 50 μg/ml) [A400/10^6 cells]	Inhibition ratio (%) ([1]; final conc. 50 μg/ml)	Melanin synthesis inhibiting effect ([1]; mouse B-16 melanoma cells treated)	Cell toxicity [2]	Cell toxicity [1]	Cell toxicity ([1]; listed as hydroquinone)
C=C1CCC2C(/C=C(\C)C(=O)C3(OC(C)=O)CC(C)C(OC(=O)c4ccccc4)C3C1OC(C)=O)C2(C)C (stereo not drawn) [EL-1, 5,15-diacetyl-3-benzoyllathyrol]	0.032 ± 0.001	28	0.019 ± 0.003	57	0.007 ± 0.001	85	very strong melanin synthesis inhibiting effect	does not show cell toxicity		
Oc1ccc(O)cc1 [Hydroquinone, reference compound]	0.025 ± 0.002	43							Cell extinction	high cell toxicity
